Reference: patent US20200282101A1, “BIODEGRADABLE TUMOR SEALANT” (MediGear International Corporation, priority 2015, published 2020)

Columns and labels:
[1] = Liquid crystal structure analysis by small-angle X-ray scattering (SAXS); format: physicochemical; settings: atmospheric pressure
Protocol: The liquid crystal structure of the aforementioned gelatinous composition was analyzed by small-angle X-ray scattering (SAXS) using the NANO Viewer nanoscale X-ray structural evaluation system (Rigaku). As a result of measuring the aforementioned gelatinous composition packed into pinhole slits under atmospheric pressure, a graph of SAXS intensity distribution (FIG. 3(1)) and peak search results (FIG. 3(2)) were obtained.
The liquid crystal structures of the aforementioned gelatinous compositions were analyzed by small-angle X-ray scattering (SAXS) using the SmartLab high-luminance in-plane X-ray diffraction system (Rigaku). The aforementioned gelatinous composition packed into pinhole slits were measured under atmospheric pressure.
Liquid crystal structure of the aforementioned emulsion was analyzed by small-angle X-ray scattering (SAXS) using the NANO Viewer nanoscale X-ray structural evaluation system (Rigaku). As a result of introducing the emulsion into a capillary tube under atmospheric pressure and measuring with the system at reduced pressure (although the sample per se was at atmospheric pressure), a graph of SAXS intensity distribution (FIG. 5(1)) and peak search results (FIG. 5(2)) were obtained.
The aforementioned emulsion was measured by SAXS in the same manner as Example 4. […]

[2] = Viscosity measurement of the synthesized compound; format: physicochemical; settings: shear rate: 92 1/s
Excerpt: The results of measuring the ^1H-NMR spectrum and viscosity of the resulting compound were as shown below.
Viscosity: 0.48 Pa·s (shear rate: 92 1/s)

[3] = Formation of gelatinous composition on mixing with physiological saline; format: physicochemical; settings: 50% by weight or more of physiological saline, separated saline removed
Protocol: An aqueous medium in the form of a 50% by weight or more of physiological saline was added to mono-O-(5,9,13-trimethyltetradeca-4-enoyl)glycerol followed by carrying out a mixing procedure and removing the separated physiological saline.
Mono-O-(5,9,13-trimethyltetradeca-4-enoyl)glycerol and a contrast agent in the form of Lipiodol were mixed at mixing ratios of 10:5, 70:30, 10:3, 80:20, 10:2, 90:10 and. 10:1. An aqueous medium in the form of 50% by weight or more of physiological saline was added to each mixture followed by carrying out a mixing procedure and removing the separated physiological saline to respectively obtain mixtures.

[4] = Stability of liquid crystal gelatinous composition in human serum; format: in vitro ADME
Protocol: Approximately 100 μL of mono-O-(5,9,13-trimethyltetradeca-4-enoyl)glycerol or approximately 100 μL each of mixed solutions of mono-O-(5,9,13-trimethyltetradeca-4-enoyl)glycerol and Lipiodol at a weight ratio of 10:1, 10:2 or 10:3 were respectively added to vials containing 2 mL of human serum (Human OTC Serum, Access Biologicals). After gently shaking each vial to cause the formation of a gelatinous composition, the vials were allowed to stand undisturbed in a water bath at 37° C. followed by observing immediately thereafter, 10 hours later and 24 hours later.
FIG. 13 depicts captured images indicating changes over time in samples consisting of approximately 100 μL of mono-O-(5,9,13-trimethyltetradeca-4-enoyl)glycerol.

## CC(=CCCC(=O)OCC(O)CO)CCCC(C)CCCC(C)C (stereo not drawn) [Example 1, Mono-O-(5,9,13-trimethyltetradeca-4-enoyl)glycerol]
[1]
  Liquid crystal structure (SAXS): inverse hexagonal liquid crystal
[2]
  Viscosity: 0.48 Pa·s
[3]
  Appearance of composition after mixing with physiological saline: cloudy to colorless, clear gel
[4]; approx. 100 μL in 2 mL human serum, 37° C., up to 24 hours
  Change of human serum with passage of time: gradually became cloudy
[4]; distilled water, within 24 hours
  Change of gelatinous composition in distilled water instead of human serum: no change in the gelatinous composition
[4]; human serum, 37° C., 10 hours
  Observation in human serum 10 hours after addition: Cloudiness can be seen to have progressed
[4]; human serum, 37° C., 24 hours
  Observation in human serum 24 hours after addition: Cloudiness had progressed even further, although the gelatinous composition remained
[4]; human serum, 37° C., 24 hours after addition
  Main eluted components by TLC analysis: mono-O-(5,9,13-trimethyltetradeca-4-enoyl)glycerol and (5,9,13-trimethyl-4-tetradecanoic)carboxylate obtained as a result of hydrolysis
[4]; human serum, 37° C., immediately after addition
  Observation in human serum immediately after addition: a gelatinous composition formed and the human serum remained clear
